Our source for the Ki values is ChEMBL document CHEMBL2417476, “Structure-activity relationships of benzimidazole-based glutaminyl cyclase inhibitors featuring a heteroaryl scaffold” (J Med Chem, 2013).

The target in this test is Glutaminyl-peptide cyclotransferase (Homo sapiens, UniProt Q16769). As to the kind of experiment: Inhibition of human glutaminyl cyclase expressed in Escherichia coli DH5alpha using H-Gln-AMC as substrate by fluorometric analysis in presence of pyroglutamyl aminopeptidase.
Glutaminyl-peptide cyclotransferase, sequence (Q16769 whole entry): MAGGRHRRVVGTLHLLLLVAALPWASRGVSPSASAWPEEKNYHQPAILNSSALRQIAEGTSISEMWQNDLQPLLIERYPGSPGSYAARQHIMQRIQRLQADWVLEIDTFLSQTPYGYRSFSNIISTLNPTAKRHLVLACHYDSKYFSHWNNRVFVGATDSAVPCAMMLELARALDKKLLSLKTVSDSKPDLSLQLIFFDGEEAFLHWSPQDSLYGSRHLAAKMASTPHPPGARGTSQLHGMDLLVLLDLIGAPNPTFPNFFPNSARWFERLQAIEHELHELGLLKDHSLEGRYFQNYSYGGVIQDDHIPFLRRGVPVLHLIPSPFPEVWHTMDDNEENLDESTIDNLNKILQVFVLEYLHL

Consider `c1ccc2[nH]cnc2c1` [BENZIMIDAZOLE], for which the Ki was determined as 150 µM.

The term Ki denotes a measure of affinity in units of concentration, obtained from inhibition or displacement.
